Measured values as given in article PMC4494942, “Sorafenib and DE605, a novel c-Met inhibitor, synergistically suppress hepatocellular carcinoma” (Oncotarget, 2015).

Tests used:
[1] = tested on: PLC/PRF/5 cells; assay: MTT cell viability assay, PLC/PRF/5; format: cell-based, human; conditions: PLC/PRF/5, 72 h
Method: (§1) Cells were seeded in 96-well plates (3,000 cells/well) and incubated overnight for attachment, and were then treated with indicated agents in 10% FBS-supplemented medium for 72 hours. The medium was replaced with MTT (0.5 mg/ml) at 37°C for 2 hours. After removal of medium, the cells were lysed with 200 μl per well dimethyl sulfoxide (DMSO), and absorbance at 570 nm was measured and the values of 50% inhibition concentration (IC50) for each drug were determined. Cell viability was evaluated by measuring the optical density at 570 nm using an Automated Microplate Reader (Bio-Tek, USA). The percentage of viable cells was calculated using the following formula: cell viability (%) = (OD of treated cells/OD of control cells) × 100. All assays were performed in triplicate with at least 3 independent experiments.

[2] = tested on: MHCC97H human HCC xenograft model and HuPrime model with human HCC explants; conditions: cited from earlier work
[3] = tested on: HepG2 cells; assay: MTT cell viability assay, HepG2; format: cell-based; conditions: Homo sapiens, HepG2, 72 h
Method: as §1

[4] = tested on: HuH7 cells; assay: MTT cell viability assay, HuH7; format: cell-based; conditions: Homo sapiens, Huh-7, HuH7, 72 h
Method: as §1

[5] = tested on: PLC/PRF/5 cells; assay: cell-cycle distribution by flow cytometry; format: cell-based, human; conditions: PLC/PRF/5, 72 h, single agent
Method: As sorafenib and c-Met inhibitors reportedly induce apoptosis in cancer cells, we examined the impact of our drug combination on programmed cell death. First, the effect of co-administration of DE605 and sorafenib on cell-cycle distribution was analyzed by flow cytometric analysis.
Figure 3 Effects of sorafenib in combination with DE605 on cell-cycle progression in PLC/PRF/5 cells (A) PLC/PRF/5 cells were treated with the indicated drugs for 72 hours, and cell-cycle distribution was analyzed by flow cytometry. (B) Statistical analysis of sub-G1 phase in PLC/PRF/5 cells exposed to DMSO, sorafenib alone, DE605 alone, or in sorafenib/DE605 combination. Data, mean ± SD (n = 3).
After drug treatment, the cells were harvested by trypsinization, washed with PBS, then pellets were resuspended and fixed in ethanol (70%, v/v) at −20°C overnight, and washed once with PBS. After centrifugation, the cells were incubated for 15 minutes at room temperature in 0.1 ml of phosphate-citric acid buffer. Cells were stained with propidium iodide staining buffer containing Triton X-100 (0.1%, v/v), RNase A (100 μg/ml), and propidium iodide (80 μg/ml) for 30 minutes in the dark. Cell-cycle distribution was analyzed by flow cytometry with CellQuest software (Becton Dickinson).

[6] = tested on: Hep3B cells; assay: MTT cell viability assay, Hep3B; conditions: Homo sapiens, 72 h, read-out: cell viability IC50
Method: as §1

[7] = tested on: PLC/PRF/5 tumor xenografts; assay: PLC/PRF/5 tumor xenograft model; conditions: oral, qd, 28 days; sorafenib 60 mg/kg, DE605 80 mg/kg; versus control group
Method: (B) body weights were measured twice per week, and are expressed as mean ± SD. (C-D) IHC analysis of intratumoral proliferation in PLC/PRF/5 xenograft tumors. Tumors were harvested and paraffin-embedded tumor tissues were subjected to immunostaining for Ki-67 (C) and TUNEL (D). Images were captured by Zeiss Axioskop-2 microscope under 200× magnification. Scale bar, 100 μm.
All surgery was performed under sodium pentobarbital anesthesia, and all efforts were made to minimize suffering. Female athymic nude mice of 4–5 weeks of age were purchased from Shanghai SLAC Laboratory Animal Co., Ltd. (Shanghai, China) and were housed in the Animal Resource Facility. […] Tumors were monitored twice weekly. As previously described [54], tumor size was measured on two axes with the aid of Vernier calipers and tumor volume (mm^3) was calculated using the formula: 1/2(L × W^2) where L is the longest and W is the shortest axis. […] For tumor growth inhibition (TGI), the antitumor effects are calculated by dividing the tumor volumes from treatment groups by those of the control groups and multiplied by 100. […]
The type of cell death (necrosis/apoptosis) was evaluated by the terminal deoxynucleotidyl transferase-mediated deoxyuridine biotin nick-end labeling (TUNEL) assay with an Apo-Direct kit (Pharmingen, San Diego, CA) as previously reported [55]. […]

Q: For `O=C1NC(=O)[C@@H](c2cn3c4c(cccc24)CCC3)[C@@H]1c1c[nH]c2ccccc12` [tivantinib], which “interaction with sorafenib on cell viability (combination index)” value ([1]; tivantinib 0.25 and 0.5 μM in combination with sorafenib) is on record?
A: The value was “synergistic effect”.

Q: Which “efficacy of combination with sorafenib” value [2] does the source give for `CN1CCC(COc2cnc(-c3cccc(Cn4nc(-c5cccc(C#N)c5)ccc4=O)c3)nc2)CC1` [MSC2156119J] here?
A: Its value is “did not improve efficacy”.

Q: What does the source list for `CNC(=O)c1cc(Oc2ccc(NC(=O)Nc3ccc(Cl)c(C(F)(F)F)c3)cc2)ccn1` [sorafenib]?
A: IC50 ([1]; Homo sapiens, MTT): 6.7 µM; IC50 [3]: 3.3 µM; IC50 [4]: 2.4 µM; cell-cycle arrest [5]: no appreciable cell-cycle arrest; IC50 [6]: 10.5 µM; tumor growth inhibition (TGI) [7]: 17.3%
